Reference: paper PMC10525135, “Computationally Designed AMPs with Antibacterial and Antibiofilm Activity against MDR Acinetobacter baumannii” (Antibiotics, 2023)
Converted amounts (≈) assume the structure as drawn. Like-named read-outs stand apart in the source and are kept apart here. Residues, ends and D or L forms follow the SMILES beside them.

Legend:
[1] = tested on: A. baumannii AB5075 (MRSN959); format: cell-based, Acinetobacter baumannii
Protocol: (§1) Minimum inhibitory concentration (n = 3) was performed according to the CLSI protocols with a minor modification, in which Difco Mueller Hinton broth (BD 275730, Franklin Lakes, NJ, USA) was used instead of cation-adjusted Mueller Hinton broth following Wiegand et al.’s standardized protocol for testing AMPs. Bacteria were grown overnight in an opaque colony, and the concentration was determined using McFarland’s technique. An aliquot of 50 µL of 1 × 10^6 CFU/mL of bacteria was incubated with a decreasing series of peptide concentration to achieve a final bacterial concentration of 5 × 10^5 CFU/mL at 37 °C 5% CO2 for 20–24 h in Difco Mueller Hinton broth. Dilutions were performed in a 96-well polypropylene plate (Corning 3879, Corning, NY, USA). This is critical to avoid peptide binding to the plate. Results were obtained by measuring bacterial growth at OD600 nm. LL-37 and polymyxin B were used as positive controls. Samples containing only the medium and medium with peptides were used as the sterility controls and samples containing only bacteria in MHB served as the growth control. Each experiment was performed twice, and one representative experiment is shown.

A. baumannii BAA-1710 [2] = format: cell-based, Acinetobacter baumannii; conditions: A. baumannii BAA-1710; Difco Mueller Hinton broth, 5 × 10^5 CFU/mL, 37 °C 5% CO2, 20–24 h, OD600, n = 3
Protocol: as §1

A. baumannii BAA-1794 = format: cell-based, Acinetobacter baumannii; conditions: A. baumannii BAA-1794; Difco Mueller Hinton broth, 5 × 10^5 CFU/mL, 37 °C 5% CO2, 20–24 h, OD600, n = 3
Protocol: as §1

A. baumannii BAA-1800 = format: cell-based, Acinetobacter baumannii; conditions: A. baumannii BAA-1800; Difco Mueller Hinton broth, 5 × 10^5 CFU/mL, 37 °C 5% CO2, 20–24 h, OD600, n = 3
Protocol: as §1

[3] = tested on: A. baumannii strains AB5075, BAA-1710, -1794, and -1800; format: cell-based, Acinetobacter baumannii; conditions: summary over MDR A. baumannii strains of Table 3
Protocol: as §1

A. baumannii AB5075 = experiment: Time-kill kinetics; format: cell-based, Acinetobacter baumannii; conditions: AB5075, highest concentration (5 µg/mL)
Excerpt: (§2) At the various timepoints, samples were serially diluted, and CFUs were counted by spot plating on a Tryptic Soy agar.

A. baumannii BAA-1710 [4] = experiment: Time-kill kinetics; format: cell-based, Acinetobacter baumannii; conditions: BAA-1710, all tested concentrations (1×, 5×, 10× MIC; MIC = 0.5 µg/mL)
Excerpt: as §2

[5] = tested on: A. baumannii BAA-1710 and -1794 biofilm; experiment: Antibiofilm screening at 100 µg/mL (crystal violet); format: cell-based, Acinetobacter baumannii; conditions: n = 3
Protocol: As the first step, antibacterial screening (n = 3) was performed on MDR strains of A. baumannii listed in Table 5, with each peptide at a concentration of 100 μg/mL in MHB. […] Growth was measured spectrophotometrically at OD600 nm at 20–24 h, following the CLSI protocol for A. baumannii incubation for MIC [99]. Similarly, biofilm formation was first established for tested A. baumannii strains using our crystal violet-staining protocol described below. Then, antibiofilm screening (n = 3) of each peptide against biofilm formation of A. baumannii was determined at 100 μg/mL. Peptides that were active in this screen were then analyzed in more detail as described below. Positive controls were used, such as LL-37 and polymyxin B [18, 66, 67]. Samples containing only the medium were considered as the sterility control whereas samples containing only bacteria served as the growth control.
The MBIC assay measures the lowest concentration of a compound that inhibits the biofilm formation of an organism. […] After the incubation of bacteria with AMPs, OD600 nm was measured for approximate bacterial growth. […] After that, 200 µL of 33% glacial acetic acid was added to resolubilize the stain, and biofilm mass was measured by a spectrophotometric reading at OD590. […]

[6] = tested on: A. baumannii BAA-1800 biofilm; conditions: A. baumannii BAA-1800, TSB, 24 h 37 °C
Protocol: The MBIC assay measures the lowest concentration of a compound that inhibits the biofilm formation of an organism. A series of decreasing peptide concentrations starting from 64 μg/mL to 0.25 μg/mL (100 µL) were incubated with 1 × 10^5 CFU of A. baumannii in 100 µL of Tryptic Soy broth (TSB) in a polystyrene 96-well plate (Falcon 353072, Corning, NY, USA) for 24 h at 37 °C to assess biofilm formation inhibition, as described previously with minor modifications. After the incubation of bacteria with AMPs, OD600 nm was measured for approximate bacterial growth. Media were carefully removed, and wells (n = 3) were rinsed with tap water. Plates were heat-fixed at 70 °C for 1 h, and 200 µL of 0.1% crystal violet diluted in deionized water were added to wells and allowed to incubate for 15 min. Excess stain was rinsed off with tap water, and the plates were air-dried. After that, 200 µL of 33% glacial acetic acid was added to resolubilize the stain, and biofilm mass was measured by a spectrophotometric reading at OD590. Bacteria alone (no treatment) served as the 100% biofilm control, and media alone and media with a peptide/drug were used as the sterility control and the 0% biofilm control.

[7] = tested on: AB5075 pre-formed (24 h) biofilm; format: cell-based, Acinetobacter baumannii
Protocol: The MBEC assay measures the lowest concentration of an antimicrobial agent that can eradicate established biofilms. Using the MBEC assay in the Biofilm Inoculator 96-well base (Innovotech Cat #1911, Edmonton, AB, Canada) and following the manufacturer’s protocol, 150 µL (n = 6) of 1 × 10^6 CFU/mL of AB5075 in TSB was incubated for 24 h at 37 °C at 110 rpm for biofilm formation. The lid containing pegs was rinsed with sterile PBS for 5 min, and then the lid was placed in a peptide challenge polypropylene 96-well plate containing a decreasing series of drug concentrations and incubated for 24 h at 37 °C at 110 rpm. Pegs were washed three times with tap water, heat-fixed for 70 °C for 1 h, and stained with 0.1% crystal violet for 15 min. Excess stain was rinsed off with tap water and allowed to dry. Stained pegs were resolubilized with 200 µL of 33% glacial acetic acid. OD590 was obtained to measure the remaining biofilm. Pegs with only bacteria served as the growth control and 100% biofilm control. Media alone and media with a peptide/drug served as the sterility controls. […] The experiment was performed twice.

CC[C@H](C)CCCCC(=O)N[C@@H](CCN)C(=O)N[C@H](C(=O)N[C@@H](CCN)C(=O)N[C@H]1CCNC(=O)[C@H]([C@@H](C)O)NC(=O)[C@H](CCN)NC(=O)[C@H](CCN)NC(=O)[C@H](CC(C)C)NC(=O)[C@@H](Cc2ccccc2)NC(=O)[C@H](CCN)NC1=O)[C@@H](C)O [Polymyxin B] (HELM PEPTIDE1{[CC[C@H](C)CCCCC(=O)[*:2]].[Dab].T.[Dab].[Dab].[Dab].[dF].L.[Dab].[Dab].T}$PEPTIDE1,PEPTIDE1,5:R3-11:R2$$$V2.0; N-terminus assumed; bridges inferred)
MIC ([1]; A. baumannii AB5075 (MRSN959), Difco Mueller Hinton broth, 5 × 10^5 CFU/mL, 37 °C 5% CO2, 20–24 h, OD600, n = 3): 0.25 to 0.5 µg/mL | MIC ([1]; A. baumannii AB5075, experiment shown in Figure S2): 0.5 µg/mL (≈ 0.415 µM) | MIC (A. baumannii BAA-1710 [2]): 0.5 µg/mL (≈ 0.415 µM) | MIC (A. baumannii BAA-1794): 0.5 µg/mL (≈ 0.415 µM) | MIC (A. baumannii BAA-1800): 0.5 µg/mL (≈ 0.415 µM) | MIC across the tested strains [3]: 0.25 to 0.5 µg/mL | Time to complete killing (A. baumannii AB5075): ≤ 3 h | Killing within 3 h (A. baumannii BAA-1710 [4]): failed to kill | Biofilm inhibition in screen [5]: complete biofilm inhibition | MBEC50 ([6]; crystal violet): 2 µg/mL | MBIC100 ([6]; polystyrene plate, crystal violet OD590, n = 3): 1 µg/mL | Concentration giving complete eradication of bacteria (reduction in CFU) in pre-formed biofilms ([7]; AB5075 pre-formed biofilm, CFU determination): 2 µg/mL | MBEC ([7]; MBEC100, AB5075 24 h pre-formed biofilm on pegs, 24 h challenge, crystal violet OD590, n = 6): * 2 µg/mL | crystal violet-stained biofilm mass maintained ([7]; treated with between 2 and 16 µg/mL, AB5075 pre-formed biofilm): up to 40%
